Measurements taken from ChEMBL document CHEMBL5257044, “Arylnaphthalene Lignans with Anti-SARS-CoV-2 and Antiproliferative Activities from the Underground Organs of Linum austriacum and Linum perenne” (J Nat Prod, 2023).

Tests used:
A549 [1] = assay: Cytotoxicity against human A549 cells incubated for 24 hrs by AlamarBlue staining based analysis; type: functional, cell-based; details: A549, 24 h
Calu-1 = assay: Cytotoxicity against human Calu-1 cells incubated for 24 hrs by AlamarBlue staining based analysis; type: functional, cell-based; details: Calu-1, 24 h
EBC-1 = assay: Cytotoxicity against human EBC-1 cells incubated for 24 hrs by AlamarBlue staining based analysis; type: functional, cell-based; details: EBC-1, 24 h
NCI-H838 = assay: Cytotoxicity against human NCI-H838 cells incubated for 24 hrs by AlamarBlue staining based analysis; type: functional, cell-based; details: NCI-H838, 24 h
A2058 = assay: Cytotoxicity against human A2058 cells incubated for 24 hrs by AlamarBlue staining based analysis; type: functional, cell-based; details: A2058, 24 h
PC-3 = assay: Cytotoxicity against human PC-3 cells incubated for 24 hrs by AlamarBlue staining based analysis; type: functional, cell-based; details: PC-3, 24 h
HepG2 = assay: Cytotoxicity against human HepG2 cells incubated for 24 hrs by AlamarBlue staining based analysis; type: functional, cell-based; details: HepG2, 24 h
[2] = Cytotoxicity against human U87 cells incubated for 24 hrs by AlamarBlue staining based analysis; type: functional, cell-based, U-87MG ATCC; details: U-87 MG
HT-29 = assay: Cytotoxicity against human HT-29 cells incubated for 24 hrs by AlamarBlue staining based analysis; type: functional, cell-based; details: HT-29, 24 h
MONO-MAC-6 = assay: Cytotoxicity against human MONO-MAC-6 cells incubated for 24 hrs by AlamarBlue staining based analysis; type: functional, cell-based; details: MONO-MAC-6, 24 h
A549 [3] = assay: Cytotoxicity against human A549 cells measured after 3 days by MTT assay; type: functional, cell-based; details: A549, 72 h
A549 [4] = assay: Cytotoxicity against human A549 cells incubated for 24 hrs by MTS assay; type: functional, cell-based; details: A549, 24 h
SARS-CoV-2 [5] = assay: Antiviral activity against SARS-COV2 EPI_ISL_1172022 infected in african green monkey Vero E6 cells assessed as inhibition of viral replication incubated for 48 hrs by RT-qPCR analysis; type: functional, organism-based; details: Severe acute respiratory syndrome coronavirus 2, EPI_ISL_1172022, Vero C1008, 48 h
SARS-CoV-2 [6] = assay: Antiviral activity against SARS-COV2 infected in african green monkey Vero E6 cells assessed as inhibition of viral replication incubated for 48 hrs by plague assay; type: functional, organism-based; details: Severe acute respiratory syndrome coronavirus 2, Vero C1008, 48 h
[7] = Cytotoxicity against African green monkey Vero E6 cells incubated for 48 hrs by CCK-8 assay; type: toxicity, cell-based, Vero C1008; details: African green monkey (Chlorocebus sabaeus)
SARS-CoV-2 [8] = assay: Antiviral activity against SARS-COV2 EPI_ISL_1172022 infected in african green monkey Vero E6 cells assessed as log reduction in viable virus at 12.5 uM incubated for 48 hrs by RT-qPCR analysis; type: functional, Severe acute respiratory syndrome coronavirus 2
TE-1 = assay: Antiproliferative activity against human TE-1 cells measured after 2 days by CCK-8 method; type: functional, cell-based; details: TE-1, 48 h
ECa-109 cell line = assay: Antiproliferative activity against human Eca-109 cells measured after 2 days by CCK-8 method; type: functional, cell-based; details: ECa-109, 48 h
BGC-823 = assay: Cytotoxicity against human BGC-823 cells assessed as reduction in cell viability measured after 4 days by MTT colorimetric assay; type: functional, cell-based; details: BGC-823, 96 h
RPMI-8226 = assay: Cytotoxicity against human RPMI-8226 cells assessed as reduction in cell viability measured after 72 hrs by MTT assay; type: functional, cell-based; details: RPMI-8226, 72 h

Question: With `COc1cc2c(O)c3c(c(-c4ccc5c(c4)OCO5)c2cc1OC)C(=O)OC3` [DIPHYLLIN] as the compound, how does the IC50 (A549 [1]) read?
Answer: 8.8 µM

Question: And the IC50 (Calu-1)?
Answer: 31.8 µM

Question: And the IC50 (EBC-1)?
Answer: 14.8 µM

Question: And the IC50 (NCI-H838)?
Answer: 16 µM

Question: And the IC50 (A2058)?
Answer: 2.6 µM

Question: And the IC50 (PC-3)?
Answer: 3.8 µM

Question: And the IC50 (HepG2)?
Answer: 21.6 µM

Question: What about the IC50 [2] of the same compound?
Answer: 26.1 µM

Question: And the IC50 (HT-29)?
Answer: 19.5 µM

Question: What about the IC50 (MONO-MAC-6) of the same compound?
Answer: 3.9 µM

Question: And the IC50 (A549 [3])?
Answer: 24 µM

Question: And the IC50 (A549 [4])?
Answer: 2.02 µM

Question: And the IC50 (SARS-CoV-2 [5])?
Answer: > 100 µM

Question: And the IC50 (SARS-CoV-2 [6])?
Answer: 1.92 µM

Question: And the IC50 at 48 h [7]?
Answer: > 100 µM

Question: And the “log(activity)” value (SARS-CoV-2 [8])?
Answer: >3

Question: What about the IC50 (TE-1) of the same compound?
Answer: 0.28 µM

Question: What about the IC50 (ECa-109 cell line) of the same compound?
Answer: 0.21 µM

Question: For `COc1cc2cc3c(c(-c4ccc5c(c4)OCO5)c2cc1OC)C(=O)OC3`, which IC50 (A549 [1]) is on record?
Answer: 11.4 µM

Question: What about the IC50 (Calu-1) of the same compound?
Answer: 18.5 µM

Question: What about the IC50 (EBC-1) of the same compound?
Answer: 63.2 µM

Question: And the IC50 (NCI-H838)?
Answer: 11 µM

Question: And the IC50 (A2058)?
Answer: 8.9 µM

Question: What about the IC50 (PC-3) of the same compound?
Answer: 5.7 µM

Question: And the IC50 (HepG2)?
Answer: 16.8 µM

Question: What about the IC50 [2] of the same compound?
Answer: 21.6 µM

Question: And the IC50 (HT-29)?
Answer: 5.9 µM

Question: What about the IC50 (MONO-MAC-6) of the same compound?
Answer: 2.5 µM

Question: What about the IC50 (SARS-CoV-2 [5]) of the same compound?
Answer: > 100 µM

Question: And the “log(activity)” value (SARS-CoV-2 [8])?
Answer: >3

Question: What about the IC50 (BGC-823) of the same compound?
Answer: 0.18 µM

Question: And the IC50 (RPMI-8226)?
Answer: 0.17 µM

Question: Which IC50 (SARS-CoV-2 [5]) does the source give for `CC(=O)Oc1ccccc1C(=O)Nc1ncc([N+](=O)[O-])s1` [NITAZOXANIDE] here?
Answer: 82.7 µM

Question: Which IC50 (SARS-CoV-2 [5]) does the source give for `CCN(CC)CCCC(C)Nc1ccnc2cc(Cl)ccc12` (configuration not stated) [CHLOROQUINE] here?
Answer: 50.2 µM

Question: With `CC(C)C(=O)OC[C@H]1O[C@@H](n2cc/c(=N\O)[nH]c2=O)[C@H](O)[C@@H]1O` [MOLNUPIRAVIR] as the compound, how does the IC50 (SARS-CoV-2 [5]) read?
Answer: > 100 µM

Question: For `COc1cc2cc(COC(=O)CC(=O)O)c(C(=O)O)c(-c3ccc4c(c3)OCO4)c2cc1OC`, which IC50 (A549 [1]) is on record?
Answer: > 100 µM

Question: And the IC50 (Calu-1)?
Answer: > 100 µM

Question: And the IC50 (EBC-1)?
Answer: 16 µM

Question: What about the IC50 (NCI-H838) of the same compound?
Answer: > 100 µM

Question: And the IC50 (A2058)?
Answer: 25.1 µM

Question: What about the IC50 (PC-3) of the same compound?
Answer: 32.8 µM

Question: And the IC50 (HepG2)?
Answer: > 100 µM

Question: And the IC50 [2]?
Answer: > 100 µM

Question: And the IC50 (HT-29)?
Answer: > 100 µM

Question: What about the IC50 (MONO-MAC-6) of the same compound?
Answer: 70.1 µM

Question: What about the IC50 (SARS-CoV-2 [5]) of the same compound?
Answer: > 100 µM

Question: For `COc1cc([C@@H]2c3cc4c(cc3[C@@H](O[C@@H]3O[C@@H]5CO[C@@H](C)O[C@H]5[C@H](O)[C@H]3O)[C@H]3COC(=O)[C@H]23)OCO4)cc(OC)c1O` [ETOPOSIDE], which IC50 (A549 [1]) is on record?
Answer: > 100 µM

Question: And the IC50 (Calu-1)?
Answer: > 100 µM

Question: And the IC50 (EBC-1)?
Answer: 15.7 µM

Question: What about the IC50 (NCI-H838) of the same compound?
Answer: > 100 µM

Question: What about the IC50 (A2058) of the same compound?
Answer: 8.9 µM

Question: And the IC50 (PC-3)?
Answer: 8 µM

Question: What about the IC50 (HepG2) of the same compound?
Answer: 20.9 µM

Question: What about the IC50 [2] of the same compound?
Answer: 27 µM

Question: And the IC50 (HT-29)?
Answer: 18.5 µM

Question: What about the IC50 (MONO-MAC-6) of the same compound?
Answer: 2.2 µM

Question: For `COc1cc2cc(COC(=O)CC(=O)O)c(C(=O)O[C@@H]3O[C@H](COC(=O)CC(C)(O)CC(=O)O)[C@@H](O)[C@H](O)[C@H]3O)c(-c3ccc4c(c3)OCO4)c2cc1OC` (some centres not stated), which IC50 (A549 [1]) is on record?
Answer: 26.3 µM

Question: What about the IC50 (Calu-1) of the same compound?
Answer: 67 µM

Question: What about the IC50 (EBC-1) of the same compound?
Answer: 19.2 µM

Question: What about the IC50 (NCI-H838) of the same compound?
Answer: 16 µM

Question: And the IC50 (A2058)?
Answer: 2.4 µM

Question: What about the IC50 (PC-3) of the same compound?
Answer: 3.2 µM

Question: And the IC50 (HepG2)?
Answer: > 100 µM

Question: What about the IC50 [2] of the same compound?
Answer: > 100 µM

Question: What about the IC50 (HT-29) of the same compound?
Answer: 19.9 µM

Question: What about the IC50 (MONO-MAC-6) of the same compound?
Answer: 7.1 µM

Question: What about the IC50 (SARS-CoV-2 [5]) of the same compound?
Answer: > 100 µM
